Key:
TrkB receptors [1] = biological target: T1, TrkB receptors (Homo sapiens, UniProt Q16620); test: Conversion of ATP to ADP by immobilized TrkB receptors on CMNPs (HPLC-ESI-MS); format: biochemical; conditions: for conversion of ATP to ADP by CMNPs with TrkB receptors: 5 mM ATP, 100 μM activator
T1 construct: expressed in transfected cells; host or cells: SH-SY5Y neuroblastoma cells stably overexpressing TrkB
Protocol: To further test the activity of the immobilized TrkB receptors, additional experiments that focused on determining the ability of the immobilized receptors to convert ATP to ADP were performed, a process commonly performed by all types of tyrosine kinase receptors. Tyrosine kinases, when active, convert ATP to ADP as they use phosphate groups to phosphorylate targeted proteins in the process of signal transduction inside a cell. […] 37° C.

TrkB receptors [2] = biological target: T1, TrkB receptors; test: Fishing experiments with CMNPs with immobilized TrkB receptors, artificial mixture; format: binding; conditions: equimolar (100 nM) mixture, HPLC-ESI-MS of washing and elution profiles
Protocol: Functional TrkB receptors (example of tyrosine kinase receptors) were immobilized on nanoparticles using the CMNPs technology described herein. Neuroblastoma SH-SY5Y cell line stably overexpressing TrkB receptors were used. Cell membrane fragments and nanoparticles used in the preparation of CMNPs were obtained using the previously optimized protocols, as described for the nicotinic receptors.
The fishing experiments were performed using the procedure previously optimized and described herein for nicotinic receptors. Washing and elution steps were performed using solvents previously reported for nicotinic receptor experiments. The difference between nicotinic and TrkB receptor experiments was with the type of artificial mixture components.

[3] = system: negative control CMNPs prepared with the parental SH-SY5Y cell line without TrkB receptors; test: Fishing with negative control CMNPs prepared with the parental SH-SY5Y cell line without TrkB receptors; format: binding
Excerpt: The use of negative control CMNPs prepared with the parental SH-SY5Y cell line without TrkB receptors allowed discernment between specific and non-specific interactions. […] Compounds interacting only with CMNPs expressing TrkB receptors and not interacting with negative control CMNPs are specifically binding with TrkB receptors.

nicotinic receptors = test: Ligand fishing with CMNPs with immobilized nicotinic receptors, artificial mixture of known binders and non-binders; format: binding; conditions: equimolar (100 nM) artificial mixture; three washes with ammonium acetate buffer; elution buffer:methanol (9:1, v/v)
Protocol: Fishing experiments can be used to evaluate the CMNP assay. As an example, CMNPs were constructed with immobilized nicotinic receptors. Parameters include selectivity, detection limit, stability, and reuse of CMNPs. The assay or fishing experiment (FIG. 3A) involves magnetic separation of CMNPs with bound compounds after 20 min incubation in an artificial mixture of known binders and nonbinders. After 3 washes with buffer, receptor-bound compounds are released during the elution process. Eluted compounds can be analyzed by high-performance liquid chromatography coupled with diode-array detection and electrospray ionization tandem mass spectrometry (HPLC-DAD-MS).
(§1) Screening experiments can be conducted with samples of various level of complexity (artificial mixtures, natural extracts with known binders). First, artificial mixtures of known binders and non-binders can be used to evaluate selectivity. In a particular example, CMNPs containing nicotinic receptors were prepared. An artificial equimolar (100 nM) mixture of known binders and non-binders was also prepared. Known binders included known nicotinic receptor binders: nicotine (#1), anabasine (#2), cytisine (#3) and non-binders: butyrylcholine iodide (#4), berberine (#5), warfarin (#6) and caffeic acid (#7). First, the CMNPs (˜10^9) were placed in 0.5 mL artificial mixture and incubated. CMNPs were subsequently washed three times with ammonium acetate buffer. After washing, CMNPs were eluted with a buffer:methanol (9:1, v/v) mixture. In both the washing and elution steps, CMNPs were separated from supernatant using a magnet.

[4] = system: CMNPs prepared using parental HEK cell line not expressing nicotinic receptors; test: Fishing with negative control CMNPs prepared from parental HEK cell line not expressing nicotinic receptors; format: binding; conditions: fishing experiments, data not shown
Protocol: as §1
As an example, CMNPs containing nicotinic receptors were used to screen a different set of potential binders in a crude mixture: that of tobacco smoke condensates (FIG. 5). The results obtained with nicotinic receptor CMNPs were compared with those obtained for negative control CMNPs. […] Therefore, the only difference between nicotinic and negative control CMNPs is the absence of nicotinic receptors in control CMNPs. After three washes with ammonium acetate buffer, the CMNPs were eluted using first ammonium acetate buffer:methanol mixture (9:1, v/v; elutions 1-3), and then ammonium acetate buffer methanol mixture (1:9, v/v, elution 4).

T1 sequence (Q16620 32-822): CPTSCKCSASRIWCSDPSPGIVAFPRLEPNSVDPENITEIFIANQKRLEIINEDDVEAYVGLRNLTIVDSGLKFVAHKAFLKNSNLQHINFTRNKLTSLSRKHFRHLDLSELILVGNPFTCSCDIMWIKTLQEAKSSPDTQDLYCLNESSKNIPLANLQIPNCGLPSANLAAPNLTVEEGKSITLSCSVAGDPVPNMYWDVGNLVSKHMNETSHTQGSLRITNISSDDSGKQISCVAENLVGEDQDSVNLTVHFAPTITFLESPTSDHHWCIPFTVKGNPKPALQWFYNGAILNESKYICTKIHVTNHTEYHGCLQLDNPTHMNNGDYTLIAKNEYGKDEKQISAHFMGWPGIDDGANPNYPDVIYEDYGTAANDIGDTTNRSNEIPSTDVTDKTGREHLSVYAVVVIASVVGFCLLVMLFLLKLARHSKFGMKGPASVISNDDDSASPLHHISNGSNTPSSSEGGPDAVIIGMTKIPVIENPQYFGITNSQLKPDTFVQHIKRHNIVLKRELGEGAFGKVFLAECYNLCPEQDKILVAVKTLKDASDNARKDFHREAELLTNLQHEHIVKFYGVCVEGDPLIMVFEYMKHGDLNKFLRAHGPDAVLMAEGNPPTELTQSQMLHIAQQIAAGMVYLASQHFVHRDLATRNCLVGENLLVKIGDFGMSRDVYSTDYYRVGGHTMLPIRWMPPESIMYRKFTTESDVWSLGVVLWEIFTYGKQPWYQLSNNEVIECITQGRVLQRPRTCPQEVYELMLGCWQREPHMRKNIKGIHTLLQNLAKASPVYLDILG

Structure (SMILES)	retention by CMNPs with immobilized nicotinic receptors (washing/elution, HPLC) (nicotinic receptors)	nonspecific binding to CMNPs from parental HEK cell line not expressing nicotinic receptors [4]	also measured
O=c1cc(-c2ccccc2)oc2c(O)c(O)ccc12 [7,8-dihydroxyflavone]			conversion of ATP to ADP by CMNPs with TrkB receptors (TrkB receptors [1]; 24-hour incubation, 4° C.): almost complete conversion of ATP to ADP; conversion of ATP to ADP by CMNPs with TrkB receptors (TrkB receptors [1]; 30 and 60 min, 37° C.): progressing conversion of ATP to ADP; conversion of ATP to ADP by nanoparticles themselves (structures inside CMNPs) (TrkB receptors [1]; nanoparticles without cell membrane, ATP (5 mM), activator 100 μM): did not lead to the conversion of ATP to ADP; retention by / interaction with CMNPs with immobilized TrkB receptors (TrkB receptors [2]): interacted only with CMNPs with TrkB receptors; retention by / interaction with CMNPs with immobilized TrkB receptors (TrkB receptors [2]; listed as 7,8-DHF): retained; interaction with negative control CMNPs without TrkB receptors [3]: no interaction
c1cncc([C@@H]2CCCCN2)c1 [anabasine]	selectively retained	lack of nonspecific binding	
COc1ccc2cc3[n+](cc2c1OC)CCc1cc2c(cc1-3)OCO2 [berberine]	absence		
CCCC(=O)OCC[N+](C)(C)C.[I-] [butyrylcholine, butyrylcholine iodide]	absence		
O=C(O)/C=C/c1ccc(O)c(O)c1 [caffeic acid]	absence		
O=c1cccc2n1C[C@@H]1CNC[C@H]2C1 [cytisine]	selectively retained	lack of nonspecific binding	
CN1CCCC1c1cccnc1 (stereo not drawn) [nicotine]	selectively retained	lack of nonspecific binding	retention by / interaction with CMNPs with immobilized TrkB receptors (TrkB receptors [2]): retained small amount; retention by / interaction with CMNPs with immobilized TrkB receptors (TrkB receptors [2]; listed as Nicotine): interacted both with CMNPs with and without TrkB receptors; interaction with negative control CMNPs without TrkB receptors [3]: interacted both with CMNPs with and without TrkB receptors

Reference: patent US20200096503A1, “CELL MEMBRANE COATED MAGNETIC NANOPARTICLES AND ASSAYS FOR IDENTIFICATION OF TRANSMEMBRANE PROTEIN-BINDING COMPOUNDS” (The Board of Trustees of The University of Alabama, priority 2018, published 2020)
